Measured values: PMC7655065, “Effect of 3-subsitution of quinolinehydroxamic acids on selectivity of histone deacetylase isoforms” (Journal of Enzyme Inhibition and Medicinal Chemistry, 2020)
Where two headings read alike, the source gives them in different places.

Assays:
A549 cells [1] = test system: A549 cells; design: method as in PMID 27344487; details: reference compounds, read-out: Antiproliferative activity IC50, A549; cited from earlier work
HCT116 cells [2] = test system: HCT116 cells; design: method as in PMID 27344487; details: reference compounds, read-out: Antiproliferative activity IC50, HCT116; cited from earlier work
HDAC8 = molecular target: T1, HDAC8 (Homo sapiens, UniProt Q9BY41); assay: HDAC biochemical assay (Fluor-de-Lys), HDAC8; details: for Selectivity ratio of HDAC8 over HDAC6: IC50 HDAC8 / IC50 HDAC6; for IC50: human recombinant HDAC8
T1 construct: EurofinPanlabs (Taipei, Taiwan)
T1 sequence (Q9BY41 1-377): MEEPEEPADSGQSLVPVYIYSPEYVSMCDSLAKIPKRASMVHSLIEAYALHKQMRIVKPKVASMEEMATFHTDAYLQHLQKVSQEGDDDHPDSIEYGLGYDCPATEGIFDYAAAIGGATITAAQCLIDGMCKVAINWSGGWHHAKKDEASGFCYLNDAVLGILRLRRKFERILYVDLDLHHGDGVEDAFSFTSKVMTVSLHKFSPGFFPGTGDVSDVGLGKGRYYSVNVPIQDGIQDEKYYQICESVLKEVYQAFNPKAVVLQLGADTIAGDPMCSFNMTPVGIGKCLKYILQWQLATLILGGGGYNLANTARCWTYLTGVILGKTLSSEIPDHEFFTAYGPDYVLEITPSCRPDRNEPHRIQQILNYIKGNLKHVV

HDAC6 [3] = molecular target: T2, HDAC6 (Homo sapiens, UniProt Q9UBN7); assay: HDAC biochemical assay (Fluor-de-Lys), HDAC6; details: human recombinant HDAC6
T2 construct: EurofinPanlabs (Taipei, Taiwan)
T2 sequence (Q9UBN7 1-1215): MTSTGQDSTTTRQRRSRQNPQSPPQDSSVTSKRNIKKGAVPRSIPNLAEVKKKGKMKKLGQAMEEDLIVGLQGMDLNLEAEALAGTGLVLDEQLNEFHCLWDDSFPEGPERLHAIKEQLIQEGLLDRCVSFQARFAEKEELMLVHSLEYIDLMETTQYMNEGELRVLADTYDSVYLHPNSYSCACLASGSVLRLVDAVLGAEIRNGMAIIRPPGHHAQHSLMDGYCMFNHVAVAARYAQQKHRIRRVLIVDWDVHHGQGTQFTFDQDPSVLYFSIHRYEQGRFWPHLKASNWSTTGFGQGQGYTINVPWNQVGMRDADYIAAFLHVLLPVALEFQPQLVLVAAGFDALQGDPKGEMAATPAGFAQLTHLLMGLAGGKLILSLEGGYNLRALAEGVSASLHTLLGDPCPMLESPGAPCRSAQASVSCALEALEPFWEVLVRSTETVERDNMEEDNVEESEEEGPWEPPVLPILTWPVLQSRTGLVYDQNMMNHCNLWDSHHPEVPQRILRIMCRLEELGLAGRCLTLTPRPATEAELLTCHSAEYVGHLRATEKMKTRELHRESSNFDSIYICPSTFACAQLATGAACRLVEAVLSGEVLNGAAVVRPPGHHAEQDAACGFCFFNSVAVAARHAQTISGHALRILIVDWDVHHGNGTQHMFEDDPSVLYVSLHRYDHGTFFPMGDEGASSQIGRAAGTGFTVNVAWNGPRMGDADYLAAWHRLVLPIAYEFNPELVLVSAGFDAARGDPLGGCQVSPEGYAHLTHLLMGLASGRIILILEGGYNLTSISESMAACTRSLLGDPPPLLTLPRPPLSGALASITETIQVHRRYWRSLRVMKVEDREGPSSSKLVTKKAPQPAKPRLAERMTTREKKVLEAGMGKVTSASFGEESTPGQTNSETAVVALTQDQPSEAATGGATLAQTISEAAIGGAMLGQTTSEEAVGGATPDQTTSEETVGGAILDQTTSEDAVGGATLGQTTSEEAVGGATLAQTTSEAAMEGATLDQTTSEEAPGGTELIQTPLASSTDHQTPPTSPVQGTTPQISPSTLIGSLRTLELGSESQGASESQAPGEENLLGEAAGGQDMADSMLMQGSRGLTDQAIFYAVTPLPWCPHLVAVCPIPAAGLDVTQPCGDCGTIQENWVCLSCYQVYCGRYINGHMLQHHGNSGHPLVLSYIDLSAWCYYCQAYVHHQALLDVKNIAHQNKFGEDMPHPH

HCT116 cells [4] = assay: Sulforhodamine B antiproliferative assay, HCT116; type: cell-based; details: Homo sapiens, HCT-116, SRB, 48 h, values > 10 μM estimated from best curve fitting
Experimental: (§1) All human cancer cells were maintained in RPMI 1640 medium supplemented with 10% FBS and penicillin (100 units/ml)/streptomycin (100 µg/ml)/amphotericin B (0.25 µg/ml). All cells were maintained in humidified air containing 5% CO2 at 37 °C and cultured every 2–3 days. […]
(§2) Cells were seeded at the density of 5000 cells/well into 96-plate overnight. Basal cells were fixed with 10% trichloroacetic acid (TCA) to represent the cell population at the time of compound addition (T0). After additional incubation of DMSO (C) or different doses of test compounds (Tx) for 48 h, cells were fixed with 10% TCA and stained with SRB at 0.4% (w/v) in 1% AcOH. Unbound SRB was washed out using 1% AcOH and SRB bound cells were solubilised with 10 mM Trizma base. The absorbance was read at a wavelength of 515 nm. The 50% growth inhibition (GI50) was calculated by 100 − [(Tx – T0)/(C – T0)] × 100.

HDAC1 = molecular target: T3, HDAC1 (Homo sapiens, UniProt Q13547); assay: HDAC biochemical assay (Fluor-de-Lys), HDAC1; details: for Selectivity ratio of HDAC1 over HDAC6: IC50 HDAC1 / IC50 HDAC6; for IC50: human recombinant HDAC1, values > 10 μM estimated from best curve fitting
T3 construct: EurofinPanlabs (Taipei, Taiwan)
T3 sequence (Q13547 whole entry): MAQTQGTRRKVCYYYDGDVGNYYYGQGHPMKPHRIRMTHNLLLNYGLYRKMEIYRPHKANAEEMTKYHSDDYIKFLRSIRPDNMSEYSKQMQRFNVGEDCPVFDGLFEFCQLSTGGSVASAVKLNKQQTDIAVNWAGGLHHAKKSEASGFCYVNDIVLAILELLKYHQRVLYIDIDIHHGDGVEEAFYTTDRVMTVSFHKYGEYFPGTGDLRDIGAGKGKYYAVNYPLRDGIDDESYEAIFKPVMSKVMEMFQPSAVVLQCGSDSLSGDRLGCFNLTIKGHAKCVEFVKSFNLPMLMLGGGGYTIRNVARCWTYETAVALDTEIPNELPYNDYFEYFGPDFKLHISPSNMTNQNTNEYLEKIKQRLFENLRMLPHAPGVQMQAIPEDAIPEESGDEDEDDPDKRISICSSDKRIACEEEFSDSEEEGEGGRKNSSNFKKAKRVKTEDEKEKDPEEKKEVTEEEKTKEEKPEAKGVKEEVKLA

HDAC2 = molecular target: T4, HDAC2 (Homo sapiens, UniProt Q92769); assay: HDAC biochemical assay (Fluor-de-Lys), HDAC2; details: for Selectivity ratio of HDAC2 over HDAC6: IC50 HDAC2 / IC50 HDAC6; for IC50: human recombinant HDAC2, dash = no inhibition or activity that could not be fitted to an IC50 curve
T4 construct: EurofinPanlabs (Taipei, Taiwan)
T4 sequence (Q92769 whole entry): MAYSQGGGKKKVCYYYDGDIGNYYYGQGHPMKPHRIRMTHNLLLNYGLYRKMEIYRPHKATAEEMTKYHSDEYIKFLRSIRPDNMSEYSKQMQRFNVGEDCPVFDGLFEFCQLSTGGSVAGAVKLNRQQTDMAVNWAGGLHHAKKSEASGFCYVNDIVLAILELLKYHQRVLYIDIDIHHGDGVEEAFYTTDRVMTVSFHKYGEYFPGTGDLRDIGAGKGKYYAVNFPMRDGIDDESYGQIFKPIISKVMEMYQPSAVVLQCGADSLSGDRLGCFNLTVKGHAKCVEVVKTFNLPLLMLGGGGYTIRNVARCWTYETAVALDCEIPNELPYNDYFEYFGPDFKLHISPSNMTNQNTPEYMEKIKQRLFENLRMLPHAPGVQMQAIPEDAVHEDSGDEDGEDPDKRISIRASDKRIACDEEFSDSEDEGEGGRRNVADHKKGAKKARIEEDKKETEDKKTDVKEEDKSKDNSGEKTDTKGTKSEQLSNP

A549 cells [5] = assay: Sulforhodamine B antiproliferative assay, A549; type: cell-based; details: Homo sapiens
Experimental: as §1, §2

HDAC6 [6] = test system: HDAC6; design: method as in PMID 29304284; details: printed in Figure 2, previously synthesised compound; cited from earlier work
A549 cells [7] = assay: Flow cytometry cell cycle analysis; type: cell-based, human; details: A549 cells, 0.25, 0.5, 10 μM, 48 h, propidium iodide
Experimental: Briefly, A549 cells were starved with EBM-2 medium overnight and were subsequently replenished with EGM-2 medium with or without 17, 25, and 26 (0.25, 0.5, 10 µM) for 48 h. After being trypsinized and fixed in ice-cold 75% MeOH for 1 h at −20 °C, A549 cells were washed with PBS and resuspended in 0.2 ml DNA extraction buffer (0.2 M Na2HPO4, 0.1 M citric acid; pH 7.8) for 30 min. Then the cells were stained with propidium iodide solution (PI; 100 µg/ml RNase, 80 µg/ml propidium iodide, 0.1% Triton X-100) in PBS. FACScan flow cytometry was utilised to determine cell cycle distribution, and data analysis was performed with CellQuest software (BD Biosciences).

A549 cells [8] = assay: Western blot analysis of apoptosis and DNA damage markers; type: cell-based, human; details: A549 cells treated for 48 h; 0.25, 5 and 10 µM
Experimental: buffer (20 mMTris-HCl pH 7.5, 150 mM NaCl, 1 mM Na2EDTA, 1 mM EGTA, 1% NP-40, 1% sodium deoxycholate, 0.1% SDS, 2.5 mM β-glycerylphosphate, 1 mM Na4P2O7, 5 mM NaF, 1 mM Na3VO4 and protease inhibitor cocktail from Millipore) on ice for 30 min following by centrifugation at 13000 rpm for 30 min. Protein concentrations were determined and equal amounts of protein were separated by 8–15% sodium dodecyl sulphate-polyacrylamide gel electrophoresis (SDS–PAGE) and transferred to poly(vinylidene difluoride) (PVDF) membranes. Membranes were immunoblotted with specific antibodies overnight at 4 °C and then applied to appropriate horseradish peroxidase-conjugated anti-mouse or anti-rabbit IgG secondary antibodies for 1 h at RT. Signals were detected using an enhanced chemiluminescence (Amersham, Buckinghamshire, UK).

[9] = A549 cells, SRB, 48 h, values > 10 μM estimated from best curve fitting, read-out: Antiproliferative activity IC50, A549

SMILES	IC50 (A549 cells [1]) [nM]	Selectivity ratio of HDAC8 over HDAC6 (HDAC8)	IC50 (HDAC8) [nM]	IC50 (HDAC6 [3]) [nM]	IC50 (HCT116 cells [4]) [nM]	Selectivity ratio of HDAC1 over HDAC6 (HDAC1)	IC50 (HDAC1) [nM]	Selectivity ratio of HDAC2 over HDAC6 (HDAC2)	IC50 (HDAC2) [nM]	IC50 (A549 cells [5]; [9]) [nM]	other results
O=C(CCCCCCC(=O)Nc1ccccc1)NO [SAHA, N^1-hydroxy-N^8-phenyloctanediamide]	1020 ± 150	–	–	–	–	–	–	–	–	–	–
O=C(/C=C/c1cccc(S(=O)(=O)Nc2ccccc2)c1)NO [PXD101, (E)-N-hydroxy-3–(3-(N-phenylsulfamoyl)phenyl)acrylamide]	780 ± 70	–	–	–	–	–	–	–	–	–	IC50 (HCT116 cells [2]): 130 ± 10 nM
O=C(NO)c1ccc(CNc2cccc3cc(-c4ccccc4)cnc23)cc1 [Compound 18, N-Hydroxy-4-[(3-phenyl-quinolin-8-ylamino)-methyl]-benzamide]	–	(355)	6880	19.4	4700 ± 380	(273)	5300	(> 515)	> 10000	4970 ± 60	melting point: 172.7 to 173.2 °C
O=C(NO)c1ccc(CNc2cccc3cccnc23)cc1 [Compound 13, N-hydroxy-4-((quinolin-8-ylamino)methyl)benzamide]	–	–	–	–	–	–	–	–	–	–	IC50 (HDAC6 [6]): 0.29 nM
O=C(NO)c1ccc(CNc2cccc3cc(-c4ccncc4)cnc23)cc1 [Compound 26, N-Hydroxy-4-(((3-(pyridin-4-yl)quinolin-8-yl)amino)methyl)benzamide]	–	(273)	2350	8.61	2030 ± 460	(596)	5130	(336)	2890	2130 ± 130	Cell cycle distribution, sub G1 population (A549 cells [7]): concentration dependent accumulation of A549 cells in sub G1 phase; Caspase 3, 8, and 9 cleavage (Western blot) (A549 cells [8]): dose dependent increases in caspase 3, 8, and 9 cleavage; IC50 (A549 cells [5]; range over both cell lines (A549 and HCT116) and both compounds, abstract, read-out: IC50 values against A549 and HCT116 cells): 1290 to 2130 nM
